According to ChEMBL document CHEMBL1201862, “PubChem BioAssay data set” (2004):
The source made the active and inactive calls.

Experiments:
HEK293 [1] = experiment: NOD2 signaling inhibitors in MDP-stimulated cells, cell-based, uHTS, luminescence (AID 2001); assay type: functional; details: Homo sapiens
HEK293 [2] = experiment: cells; assay type: functional, cell-based; details: Homo sapiens
HEK293 [3] = experiment: NOD1 signaling inhibitors, primary screen, cell-based, luminescence, uHTS (AID 1578); assay type: functional; details: Homo sapiens
[4] = target: Nucleotide-binding oligomerization domain-containing protein 2 (Homo sapiens, UniProt Q9HC29); experiment: NOD2 signaling inhibitors, cell-based, luminescence, uHTS, HEK293 (AID 1566); assay type: functional
HEK293 [5] = experiment: cells; assay type: functional, cell-based; details: Homo sapiens; remark: listed apart in the source
HEK293 [6] = experiment: cells; assay type: functional, cell-based; details: Homo sapiens; remark: listed apart in the source
Beta-galactosidase = Beta-galactosidase (Escherichia coli, UniProt Q8VNN2); experiment: beta-galactosidase enzyme inhibitors and activators, dose response, artefact control for CCR6 antagonist project, biochemical, E. coli enzyme, set 3 (AID 504712); assay type: functional
Cannabinoid receptor 1 [7] = target: T1, Cannabinoid receptor 1 (Homo sapiens, UniProt P21554); experiment: SAR analysis of antagonists of the Cannabinoid Receptor 1 using an Image-Based Assay - Set 4. [Related pubchem assays (depositor defined):AID2013, AID2026]; assay type: functional
Cannabinoid receptor 2 [8] = target: T2, Cannabinoid receptor 2 (Homo sapiens, UniProt P34972); experiment: SAR analysis of agonists of the Cannabinoid Receptor 2 using an Image-Based Assay - Set 3. [Related pubchem assays (depositor defined):AID2013, AID2026]; assay type: functional
[9] = target: G-protein coupled receptor 55 (Homo sapiens, UniProt Q9Y2T6); experiment: SAR Analysis of Selective Antagonists of GPR55 using an Image-Based Assay - Set 4. [Related pubchem assays (depositor defined):AID2013, AID2026]; assay type: functional;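 also: antagonism of response to 5 µM lysophosphatidylinositol agonist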
[10] = target: T3, G-protein coupled receptor 35 (Homo sapiens, UniProt Q9HC97); experiment: SAR analysis of Antagonists of the GPR35 Receptor using an Image-Based Assay - Set 6. [Related pubchem assays (depositor defined):AID2013, AID2026]; assay type: functional
Cannabinoid receptor 2 [11] = target: T2, Cannabinoid receptor 2; experiment: SAR analysis of antagonists of the Cannabinoid Receptor 2 using an Image-Based Assay - Set 3. [Related pubchem assays (depositor defined):AID2013, AID2026]; assay type: functional
Cannabinoid receptor 1 [12] = target: T1, Cannabinoid receptor 1; experiment: SAR analysis of agonists of the Cannabinoid Receptor 1 using an Image-Based Assay - Set 4. [Related pubchem assays (depositor defined):AID2013, AID2026]; assay type: functional
[13] = target: T3, G-protein coupled receptor 35; experiment: SAR analysis of Agonists of the GPR35 Receptor using an Image-Based Assay - Set 4. [Related pubchem assays (depositor defined):AID2013, AID2026]; assay type: functional
Troponin, cardiac muscle = Troponin, cardiac muscle (Homo sapiens, UniProt P19429+P45379+P63316); experiment: Fluorescence-based biochemical high throughput dose response assay for activators of the calcium sensitivity of cardiac Regulated Thin Filaments (RTF). [Related pubchem assays (depositor defined):AID493008, AID493018, AID504382, AID504383]; assay type: protein-complex assay
[14] = target: T4, Mannose-6-phosphate isomerase (Homo sapiens, UniProt P34949); experiment: human PMI inhibitors, high substrate, primary screen, biochemical, fluorescence intensity, high mannose 6-phosphate (AID 1220)
T4 sequence (P34949 whole entry): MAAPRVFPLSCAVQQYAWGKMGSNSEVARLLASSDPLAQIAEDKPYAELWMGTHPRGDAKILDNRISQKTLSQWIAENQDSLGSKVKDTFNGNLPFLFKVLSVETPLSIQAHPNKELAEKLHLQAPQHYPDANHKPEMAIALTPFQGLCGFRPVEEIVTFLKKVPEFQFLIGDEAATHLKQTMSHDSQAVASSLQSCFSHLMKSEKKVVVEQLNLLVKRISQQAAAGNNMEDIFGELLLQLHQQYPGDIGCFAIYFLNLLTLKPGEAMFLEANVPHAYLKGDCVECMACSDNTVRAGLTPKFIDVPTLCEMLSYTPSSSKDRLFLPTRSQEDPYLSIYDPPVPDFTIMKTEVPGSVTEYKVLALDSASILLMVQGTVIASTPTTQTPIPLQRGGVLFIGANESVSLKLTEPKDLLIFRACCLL

Coagulation factor XII [15] = target: T5, Coagulation factor XII (Homo sapiens, UniProt P00748); experiment: FXIIa inhibitor potency, concentration-response, biochemical (AID 716); assay type: functional
T5 sequence (P00748 whole entry): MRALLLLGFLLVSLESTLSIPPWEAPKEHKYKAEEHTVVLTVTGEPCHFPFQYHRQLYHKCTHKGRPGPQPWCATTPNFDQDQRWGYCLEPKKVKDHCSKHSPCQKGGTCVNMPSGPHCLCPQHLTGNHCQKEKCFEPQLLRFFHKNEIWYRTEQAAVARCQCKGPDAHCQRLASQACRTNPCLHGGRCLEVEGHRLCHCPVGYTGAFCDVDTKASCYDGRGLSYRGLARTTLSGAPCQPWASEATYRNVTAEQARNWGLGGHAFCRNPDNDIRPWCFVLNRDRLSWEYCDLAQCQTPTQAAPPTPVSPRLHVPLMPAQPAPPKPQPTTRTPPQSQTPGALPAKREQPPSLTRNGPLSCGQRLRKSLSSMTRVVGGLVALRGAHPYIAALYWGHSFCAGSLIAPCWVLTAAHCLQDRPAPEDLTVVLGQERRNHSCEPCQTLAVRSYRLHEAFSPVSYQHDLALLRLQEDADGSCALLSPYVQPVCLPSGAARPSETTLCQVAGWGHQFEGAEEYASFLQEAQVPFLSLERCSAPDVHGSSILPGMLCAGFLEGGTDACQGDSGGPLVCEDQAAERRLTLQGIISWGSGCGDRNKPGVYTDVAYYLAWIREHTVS

[16] = target: T6, Replicative DNA helicase DnaB (Mycobacterium tuberculosis, UniProt P9WMR3); experiment: DnaB intein splicing inhibitors, dose response, biochemical, cell-free fluorescence (AID 449749); assay type: functional
T6 sequence (P9WMR3 whole entry): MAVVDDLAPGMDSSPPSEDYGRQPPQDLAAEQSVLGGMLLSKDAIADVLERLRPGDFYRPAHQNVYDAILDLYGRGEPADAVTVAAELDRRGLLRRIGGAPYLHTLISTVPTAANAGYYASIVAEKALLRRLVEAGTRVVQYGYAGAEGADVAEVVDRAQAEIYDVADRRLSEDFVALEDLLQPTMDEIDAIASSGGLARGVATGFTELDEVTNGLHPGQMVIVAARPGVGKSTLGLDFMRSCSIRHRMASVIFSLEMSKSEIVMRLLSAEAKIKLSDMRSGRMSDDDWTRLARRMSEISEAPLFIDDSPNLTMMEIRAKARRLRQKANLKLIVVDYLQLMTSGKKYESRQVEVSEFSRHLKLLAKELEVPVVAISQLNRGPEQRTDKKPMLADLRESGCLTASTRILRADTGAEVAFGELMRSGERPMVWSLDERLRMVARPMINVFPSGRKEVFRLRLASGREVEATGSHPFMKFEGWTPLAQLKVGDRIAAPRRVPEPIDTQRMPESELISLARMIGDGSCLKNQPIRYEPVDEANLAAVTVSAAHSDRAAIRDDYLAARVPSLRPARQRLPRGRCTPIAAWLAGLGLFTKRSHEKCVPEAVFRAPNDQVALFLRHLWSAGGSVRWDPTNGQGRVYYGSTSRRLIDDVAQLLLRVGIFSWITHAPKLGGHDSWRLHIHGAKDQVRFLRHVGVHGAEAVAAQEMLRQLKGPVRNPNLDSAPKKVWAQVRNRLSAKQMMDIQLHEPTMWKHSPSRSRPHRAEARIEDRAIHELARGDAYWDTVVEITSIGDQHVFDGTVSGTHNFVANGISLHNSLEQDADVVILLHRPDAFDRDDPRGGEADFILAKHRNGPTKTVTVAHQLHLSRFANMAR

Protein RecA = target: T7, Protein RecA (Mycobacterium tuberculosis, UniProt P9WHJ3); experiment: Fluorescence Cell-Free Homogeneous Dose Retest to Identify Inhibitors of RecA-Intein Splicing Activity. [Related pubchem assays (depositor defined):AID2097, AID2223, AID489010, AID492950]; assay type: functional
T7 sequence (P9WHJ3 whole entry): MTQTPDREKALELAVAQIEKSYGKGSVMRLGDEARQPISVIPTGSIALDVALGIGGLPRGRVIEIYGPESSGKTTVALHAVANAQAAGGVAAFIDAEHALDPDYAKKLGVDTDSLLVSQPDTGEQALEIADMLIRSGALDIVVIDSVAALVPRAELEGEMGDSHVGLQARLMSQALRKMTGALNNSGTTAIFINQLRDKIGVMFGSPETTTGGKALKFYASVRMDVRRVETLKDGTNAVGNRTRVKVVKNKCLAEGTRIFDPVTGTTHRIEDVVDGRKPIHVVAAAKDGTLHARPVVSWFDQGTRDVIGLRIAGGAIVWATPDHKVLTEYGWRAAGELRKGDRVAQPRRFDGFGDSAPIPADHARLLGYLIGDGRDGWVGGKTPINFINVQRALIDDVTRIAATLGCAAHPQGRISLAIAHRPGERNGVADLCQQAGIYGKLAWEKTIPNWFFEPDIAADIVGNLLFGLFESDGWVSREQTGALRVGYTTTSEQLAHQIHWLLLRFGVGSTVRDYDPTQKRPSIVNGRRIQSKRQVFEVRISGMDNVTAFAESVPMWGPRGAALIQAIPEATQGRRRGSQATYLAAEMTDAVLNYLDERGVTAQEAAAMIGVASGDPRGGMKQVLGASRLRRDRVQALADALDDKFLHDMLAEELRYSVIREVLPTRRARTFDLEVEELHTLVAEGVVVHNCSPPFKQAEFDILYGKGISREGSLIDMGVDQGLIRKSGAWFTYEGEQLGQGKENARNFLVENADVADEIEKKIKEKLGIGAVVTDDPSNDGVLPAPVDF

Coagulation factor XII [17] = target: T5, Coagulation factor XII; assay type: functional

## O=C(NC(=S)N1CCN(Cc2ccc3c(c2)OCO3)CC1)c1cccc(Br)c1
HEK293 [1]
  IC50: 6.54 µM (inactive)
HEK293 [2]
  IC50: > 20 µM (inactive)
HEK293 [3]
  EC50: 7.03 µM (active)
[4]
  EC50: > 20 µM (inactive)
HEK293 [5]
  IC50: > 20 µM (inactive)
HEK293 [6]
  IC50: 16.1 µM (active)
Beta-galactosidase
  IC50: > 66.6 µM (inactive)

## Cc1nnc(-c2cccc(Br)c2)c2cn(-c3ccccc3)nc12
Cannabinoid receptor 1 [7]
  IC50: 1.68 µM (active)
Cannabinoid receptor 2 [8]
  EC50: > 32 µM (inactive)
[9]
  IC50: 3.95 µM (active)
[10]
  IC50: > 32 µM (inactive)
Cannabinoid receptor 2 [11]
  IC50: 10.4 µM (inactive)
Cannabinoid receptor 1 [12]
  EC50: > 32 µM (inactive)
[13]
  EC50: > 32 µM (inactive)

## COc1ccc(S(=O)(=O)N2CN(Cc3ccco3)c3nc4ccccc4nc32)cc1
Troponin, cardiac muscle
  EC50: > 71.5 µM (inactive)

## CN1CC2(Cc3c1ccc1ccccc31)C(=O)OC(C)(C)OC2=O
[14]
  IC50: > 50 µM (not active)
Coagulation factor XII [15]
  IC50: > 50 µM (inactive)

## CC(=O)Nc1ccc(OC(=O)c2ccco2)cc1
[16]
  AC50: 93.9 µM (active)
Protein RecA
  EC50: 12.1 µM (active)
Coagulation factor XII [17]
  IC50: > 50 µM (inactive)

## COc1cc2c(cc1OC)C(c1ccc(-c3cc(Cl)ccc3Cl)o1)=NCC2
HEK293 [1]
  IC50: 2.75 µM (active)
HEK293 [2]
  IC50: > 20 µM (inactive)
HEK293 [3]
  EC50: > 20 µM (inactive)
[4]
  EC50: > 20 µM (inactive)
HEK293 [5]
  IC50: > 20 µM (inactive)
HEK293 [6]
  IC50: 5.36 µM (active)
